In one assay the test system is Candida albicans. In words: Minimal inhibitory concentration (MHK), microtitre plate, TTC staining. Format: cell-based. Conditions: 48h, 36°C.
In the next assay the test system is S. falcium. The description is as above. Format: cell-based. The settings on record: 48h, 36°C.
Another assay concerns Escherichia coli. The description is as above. Conditions: 48h, 36°C. It counts as cell-based.
Another assay relates to Rhodococcus equi. The description is as above. It counts as cell-based. Conditions: 48h, 36°C.
Another assay has as its system S. aureus. The assay is described as above. The settings on record: 48h, 36°C. It counts as cell-based.
A further assay deals with Micrococcus luteus. Described as above. Format: cell-based. Conditions: 48h, 36°C.
In a further assay the test system is E. faecium. The assay is described as above. The settings on record: 48h, 36°C. Format: cell-based.
The next assay concerns Bacillus subitilis. The description is as above. It counts as cell-based. The settings on record: 48h, 36°C.
Another assay relates to S. epidermides. The description is as above. Conditions: 48h, 36°C. It counts as cell-based.
The test system of another assay is Salmonella sp. The assay is described as above. It counts as cell-based. Conditions: 48h, 36°C. An excerpt:
Das Inokulum für die Tests wurde durch Verdünnung der Mikroorganismen in wässriger 0,85% NaCI-Lösung hergestellt, die Verdünnung auf die Stufe 0,5 nach McFarland eingestellt und die Konzentration spektrometrisch bei einer Wellenlänge von 580nm überprüft. Die Zellsuspensionen wurden zur Verwendung in den Tests auf 10^4 UFC/ml verdünnt. Die MHK-Tests erfolgten (Vorschrift nach J. N. P. Eloff, Planta Medica, Vol. 64, 1998, p 711-713) in Mikrotiterplatten mit 96 Vertiefungen. Serienverdünnungen der Konzentrationen lagen im Bereich 1,00 - 0,0015 mg/mL. Als Kontrollsubstanzen dienten Chloramphenicol bzw. Nistatin (Merck) in einer Konzentration von 0,062 - 0,005 mg/ml bzw. 0,0125 - 0,001 mg/ml. Das Inokulum (100 µl) wurde in alle Vertiefungen gegeben und die Platten für 48h bei 36°C inkubiert. Die antimikrobielle Aktivität wurde durch Zugabe von 20 µl einer 0,5% igen wässrigen Lösung von TTC (Tetrazoliumchlorid, Merck) pro Vertiefung detektiert. Die minimale Hemmkonzentration (MHK) wird als die niedrigste Konzentration der Verbindung definiert die das sichtbare Wachstum hemmt (durch TTC-Färbung indiziert).

The nature of assay [1]: Radical scavenger screening with DPPH radicals (DPPH test). The settings on record: Konzentrationen 500 und 1000µg/ml. The text has this:
[…] die 6 Verbindungen HMF2, HMF-3, CH-1, L5, Q20 und […]. Die […] durch den DPPH-Test ermittelt, wobei sich die UV/VIS-Absorption des freien stabilen […] (Diphenyl-β-picrylhydrazin) in Abhängigkeit vom Zustand von […]. Die Auswertung erfolgt qualitativ (dünnschichtchromatographisch) und quantitativ (photometrisch) mit Ascorbinsäure […] Molyneux P. (2004) The use of the stabel free radical diphenylpicrylhydrazyl (DPPH) for estimating antioxidant activity. Songklanakarin J Sci Technol. 26(2): 211-219).
For orientation: Loss of DPPH colour is used to gauge radical scavenging.

The subject of assay [2] is Staphylococcus aureus (Stamm ATCC 6538). In words: Mouse ear test (in vivo), antiseptic effect. Conditions: mouse ears infected with S. aureus ATCC 6538; germ count vs infected untreated animal after 18 and 24 h. The arrangement: key to Keimwachstum (grade): +++: totale Verhinderung des Keimwachstums; ++: Keimwachstum deutlich reduziert aber nicht völlig unterdrückt.
The next assay relates to LNCaP. In words: Chemosensitivity test (modified MTT test EZ4U). The settings on record: Homo sapiens, 96 h, read-out: IC50-Werte. In general terms: Tetrazolium dyes change colour on reduction, which living cells bring about.
The subject of a further assay is EW-7. Nature of the assay: Chemosensitivity test (modified MTT test EZ4U). The settings on record: Homo sapiens, 96 h, read-out: IC50-Werte.
The next assay concerns WI38. Nature of the assay: Chemosensitivity test (modified MTT test EZ4U). Conditions: for IC50: Homo sapiens, WI-38, 96 h, read-out: IC50-Werte; for Zellwachstum in % der Mediumkontrolle: 4 days.
Assay [3] relates to T47D. Nature of the assay: Chemosensitivity test (modified MTT test EZ4U). The settings on record: 4 days.
Experimental: (§1) Die Verbindungen wurden in Dimethylsulfoxid (DMSO) als konzentrierte Stammlösungen (100-400fach) gelöst und für Proliferationstests in Zellkulturmedium verdünnt.
(§2) Die Zellen wurden auf Verunreinigung durch Mycoplasmen untersucht. Das Medium wurde mit 10% hitzeinaktiviertem foetalem Kälberserum (Seromed) and 4 mM Glutamin ergänzt. Die Zellen wurden durch Trypsinierung subkultiviert (0.03% Trypsin enthaltend 0.02% EDTA, dreimal pro Woche). Die Trypsinierung wurde durch Verwendung vom komplettem Zellkulturmedium gestoppt. Die Zellzahl wurde unter Verwendung eines TOA Sysmex Microzellzählers (TOA, Tokyo, Japan) bestimmt.
(§3) 10^4 Zellen/well wurden in Mikrotiterplatten mit 96 Vertiefungen (100 µl Medium) verteilt und die zu testenden Verbindungen wurden in einem weiteren Volumen von 100 µl hinzugegeben. Alle Verbindungen wurden entweder in 3 fixen Konzentrationen eingesetzt (für Tabellen 1-3) oder in 10 Stufen verdünnt unter Verwendung von Zweifachverdünnungsschritten zur Bestimmung der IC50-Werte (dreifache Ansätze, in den meisten Fällen vierfache Ansätze). Die Platten wurden, mit der Ausnahme der Tests zur Untersuchung des Zusammenhangs von Applikationsdauer und Zellreaktion, 4 Tage lang unter Zellkulturbedingungen inkubiert und die Zellviabilität wurde unter Verwendung eines modifizierten MTT Tests bestimmt (Formazan-Farbstoffbildung aus Tetrazoliumsalzen wie MTT, XTT, WST-1 und anderen durch das mitochondriale Reduktionsystem Succinattetrazolium Reductase EC 1.3.99.1.; EZ4U nichtradioaktiver Zellproliferations- und Cytotoxizitätstest, Biomedica, Wien, Österreich; Testmanual unter: www.bmgrp.com). Hierbei wurde die mitochondriale Aktivität und dadurch die Zellviabilität/Zellzahl bestimmt. Kurz gesagt wurde das gelieferte Substrat in einer Aktivatorlösung gelöst und 20 µl der Mischung wurden für 2 Stunden pro Vertiefung hinzugegeben (Gesamtvolumen 200 µl). Die optische Dichte wurde bei 450 nm unter Verwendung einer leeren Vertiefung als Referenz in einem Mikroplattenlesegerät (Eurogenetics, Brüssel, Belgien) bestimmt. Für jede Zell-Line wurden Vertiefungen verwendet um das MTT-Signal der Mediumkontrollen ohne Testsubstanzen zu bestimmen. Die Proliferation in den Test-Vertiefungen wurde in Bezug auf diese Kontrollwerte (100%) errechnet. Die Testergebnisse wurden zwischen 0,3 und 1,5 optischer Dichte für langsam bzw. schnellproliferierende Zellen erfasst. Diese Dosis-Wirkungs-Beziehungen wurden verwendet um die IC50 (Konzentration bei der das Wachstum um 50% gehemmt wird) unter Verwendung von PRISM Scientific Software (GraphPad Inc., San Diego, CA) zu berechnen.
For another assay, the system named is MIAPaCa2. Nature of the assay: Chemosensitivity test (modified MTT test EZ4U). The settings on record: for IC50: Homo sapiens, MIA PaCa-2, 96 h, read-out: IC50-Werte; for Zellwachstum in % der Mediumkontrolle: 4 days.
Assay [4] relates to T47D. In words: Cell count determination in a proliferation test. The settings on record: Homo sapiens, read-out: Inhibition des Zellenwachstums (in %).
Text: as §1
(§4) Mit Ausnahme von SIM, KAL Ewingsarkom (in Wien etabliert) und LAN Neuroblastom (University of Los Angeles) wurden die Zell-Linien von der American Type Culture Collection (ATCC, Rockville, MD) bezogen und zum Erhalt von konfluenten Monolayerkulturen in RPMI-1640 Bikarbonatmedium (Seromed, Berlin, Deutschland) in einem Zellkulturschrank (5% CO2, 37°C) kultiviert. […] Die Zellen wurden auf Verunreinigung durch Mycoplasmen untersucht. Das Medium wurde mit 10% hitzeinaktiviertem foetalem Kälberserum (Seromed) and 4 mM Glutamin ergänzt. Die Zellen wurden durch Trypsinierung subkultiviert (0.03% Trypsin enthaltend 0.02% EDTA, dreimal pro Woche). Die Trypsinierung wurde durch Verwendung vom komplettem Zellkulturmedium gestoppt. Die Zellzahl wurde unter Verwendung eines TOA Sysmex Microzellzählers (TOA, Tokyo, Japan) bestimmt.
(§5) Die Zellen wurden in Makroplatten mit 6 Vertiefungen (Greiner, Kremsmünster, Österreich) in einer anfänglichen Zelldichte von 200 000 Zellen/Vertiefung in 4 ml Medium unter Zellkulturbedingungen in Anwesenheit oder Abwesenheit der Testverbindungen (doppelte Ansätze) kultiviert. […]
A further assay deals with SKOV3. Nature of the assay: Chemosensitivity test (modified MTT test EZ4U). The settings on record: Homo sapiens, SK-OV-3, 96 h, read-out: IC50-Werte.
The next assay has as its system LAN1. In words: Chemosensitivity test (modified MTT test EZ4U). Conditions: Homo sapiens, LAN1, 96 h, read-out: IC50-Werte.
For a further assay, the system named is BT20. Nature of the assay: Cell count determination in a proliferation test. Conditions: Homo sapiens, BT-20, read-out: Inhibition des Zellenwachstums (in %).
The subject of assay [5] is Colo205. In words: Chemosensitivity test (modified MTT test EZ4U). Conditions: 4 days.
Experimental: as §1, §2, §3
Another assay has as its system J82. Nature of the assay: Chemosensitivity test (modified MTT test EZ4U). Conditions: Homo sapiens, J82, 96 h, read-out: IC50-Werte.
The next assay deals with KAL. Nature of the assay: Chemosensitivity test (modified MTT test EZ4U). Conditions: Homo sapiens, 96 h, read-out: IC50-Werte.
Another assay has as its system CRO2B. In words: Chemosensitivity test (modified MTT test EZ4U). Conditions: Homo sapiens, 96 h, read-out: IC50-Werte.
The next assay deals with U87MG. Nature of the assay: Chemosensitivity test (modified MTT test EZ4U). The settings on record: Homo sapiens, U-87 MG, 96 h, read-out: IC50-Werte.
In the next assay the test system is CaCo-2. In words: Chemosensitivity test (modified MTT test EZ4U). The settings on record: Homo sapiens, Caco-2, 96 h, read-out: IC50-Werte.
Another assay has as its system SW620. Nature of the assay: Chemosensitivity test (modified MTT test EZ4U). The settings on record: Homo sapiens, SW-620, 96 h, read-out: IC50-Werte.
The subject of the next assay is SIM. Nature of the assay: Chemosensitivity test (modified MTT test EZ4U). Conditions: Homo sapiens, 96 h, read-out: IC50-Werte.
The test system of assay [6] is Colo205. Nature of the assay: Cell count determination in a proliferation test. Conditions: Homo sapiens, COLO 205, read-out: Inhibition des Zellenwachstums (in %).
Text: as §1, §4, §5

Converted amounts (≈) assume the structure as drawn. “And” between values parts separate entries of the source, which are not always exact repeats. Equal entries are not always repeated. Marks after values point to notes of the source that are not given here.

Text for BT20: as §1, §4, §5
Experimental for CRO2B: as §1, §2, §3
Experimental for CaCo-2: as §1, §2, §3
Text for EW-7: as §1
(§6) Mit Ausnahme von SIM, KAL Ewingsarkom (in Wien etabliert) und LAN Neuroblastom (University of Los Angeles) wurden die Zell-Linien von der American Type Culture Collection (ATCC, Rockville, MD) bezogen und zum Erhalt von konfluenten Monolayerkulturen in RPMI-1640 Bikarbonatmedium (Seromed, Berlin, Deutschland) in einem Zellkulturschrank (5% CO2, 37°C) kultiviert. Mit der Ausnahme der murinen NlH3T3 Fibroblasten sind alle verwendeten Zell-Linien humanen Ursprungs. Die Zellen wurden auf Verunreinigung durch Mycoplasmen untersucht. Das Medium wurde mit 10% hitzeinaktiviertem foetalem Kälberserum (Seromed) and 4 mM Glutamin ergänzt. Die Zellen wurden durch Trypsinierung subkultiviert (0.03% Trypsin enthaltend 0.02% EDTA, dreimal pro Woche). Die Trypsinierung wurde durch Verwendung vom komplettem Zellkulturmedium gestoppt. Die Zellzahl wurde unter Verwendung eines TOA Sysmex Microzellzählers (TOA, Tokyo, Japan) bestimmt.
(§7) 10^4 Zellen/well wurden in Mikrotiterplatten mit 96 Vertiefungen (100 µl Medium) verteilt und die zu testenden Verbindungen wurden in einem weiteren Volumen von 100 µl hinzugegeben. […]
Experimental for J82: as §1, §2
(§8) 10^4 Zellen/well wurden in Mikrotiterplatten mit 96 Vertiefungen (100 µl Medium) verteilt und die zu testenden Verbindungen wurden in einem weiteren Volumen von 100 µl hinzugegeben. Alle Verbindungen wurden entweder in 3 fixen Konzentrationen eingesetzt (für Tabellen 1-3) oder in 10 Stufen verdünnt unter Verwendung von Zweifachverdünnungsschritten zur Bestimmung der IC50-Werte (dreifache Ansätze, in den meisten Fällen vierfache Ansätze). […]
Text for KAL: as §1, §6, §7
Experimental for LAN1: as §1, §2, §8
Text for LNCaP: as §1, §6, §7
Experimental for MIAPaCa2: as §1, §2, §3
Text for SIM: as §1, §6, §7
Experimental for SKOV3: as §1, §2, §8
Experimental for SW620: as §1, §2, §3
Text for U87MG: as §1, §6, §7
Experimental for WI38: as §1, §2, §3

Consider `C[C@@H]1[C@H](O)[C@@H](C)/C=C/C=C/CC/C=C/C=C/C=C/C=C/C(O[C@H]2O[C@H](C)[C@@H](O)[C@H](N)[C@@H]2O)CC2O[C@](O)(CC(O)C(O)CCC(O)CC(O)CC(O)CC(=O)O[C@H]1C)CC(O)C2C(=O)O` (some centres unmarked) [Nistatin, reference compound], for which the MHK-Werte in the assay on Candida albicans is 0,05** mg/ml and 0,12** mg/ml.
Take `CC(=C(C#N)C#N)c1ccc(O)cc1` [OK, 2-[1-(4-Hydroxyphenyl)ethyliden]malonitril]: the MHK-Werte is 0,5-1,0 mg/ml in the assay with Candida albicans; 0,5-1,0 mg/ml in the assay on S. falcium; 0,5-1,0 mg/ml in the assay on Escherichia coli; 0,5-1,0 mg/ml in the assay with Rhodococcus equi; 0,25-0,5 mg/ml in the assay on S. aureus; 0,12-0,25 mg/ml with Micrococcus luteus. Besides, the MHK-Werte in the assay with E. faecium is given as 0,12-0,25 mg/ml; in the assay on Bacillus subitilis, 0,12-0,25 mg/ml; with S. epidermides it was 0,03-0,06 mg/ml.
As to `O=C(N[C@H](CO)[C@H](O)c1ccc([N+](=O)[O-])cc1)C(Cl)Cl` [Chloramphenicol, reference compound], the MHK-Werte is recorded as 0,12 mg/ml with S. falcium; 0,04 mg/ml in the assay on Escherichia coli; 0,04 mg/ml in the assay on Rhodococcus equi; 0,02 mg/ml in the assay with S. aureus; 0,06 mg/ml with Salmonella sp; 0,05 mg/ml in the assay on Micrococcus luteus. Further, the MHK-Werte was 0,12 mg/ml with E. faecium, 0,02 mg/ml with Bacillus subitilis and 0,04 mg/ml with S. epidermides.
On to `CC(C)=CCOc1ccc(C(C)=C(C#N)C#N)cc1` [LPK1, 2-{1-[4-(3-Methylbut-2-enyloxy)phenyl]ethyiliden}-malononitril], for which the MHK-Werte with Candida albicans, in the assay on S. falcium, in the assay with Escherichia coli, in the assay on Rhodococcus equi, in the assay with S. aureus and in the assay on Salmonella sp was > 1,5 mg/ml throughout. Moreover, the MHK-Werte is given as > 1,5 mg/ml in the assay on Micrococcus luteus, > 1,5 mg/ml in the assay with E. faecium, > 1,5 mg/ml with Bacillus subitilis and 0,5-1,0 mg/ml in the assay on S. epidermides.
Take `CC(C)=CCOc1ccccc1C(C)=C(C#N)C#N` [L5, 2-{1-[2-(3-Methylbut-2-enyloxy}phenyl]ethyliden}-malononitril]: in assay [1], the Radikalfänger-Effekt was determined as 60%. Moreover, the “Keimwachstum (grade)” value in assay [2] is on record as “+++”.
For the compound `O=C(/C=C/c1ccc(CO)o1)c1ccccc1O` [HMF-3, 3-(5-Hydroxymethylfuran-2-yl)-1-(2-hydroxyphenyl)-propenon], the IC50 with LNCaP is 9.5 µg/mL (≈ 38.9 µM); in the assay with EW-7, 5.25 µg/mL (≈ 21.5 µM); with WI38, 20 µg/mL (≈ 81.9 µM); in the assay on MIAPaCa2, greater than 200 µg/mL; with SKOV3, greater than 200 µg/mL; in the assay with LAN1, 20 µg/mL (≈ 81.9 µM). For the same compound, the IC50 in the assay on J82 was greater than 200 µg/mL; with KAL, greater than 200 µg/mL; in the assay on CRO2B, greater than 200 µg/mL; in the assay on U87MG it was greater than 200 µg/mL; in the assay on CaCo-2 it was greater than 200 µg/mL; with SW620, 9.7 µg/mL (≈ 39.7 µM). Also, in the assay on SIM, the IC50 was greater than 200 µg/mL. Further, the “Zellwachstum in % der Mediumkontrolle” value is listed as 64,70% in the assay with WI38 (WI38 (Fibroblasten), 5 µg/ml); 81,50% in the assay on WI38 (WI38 (Fibroblasten), 10 µg/ml); 92% in the assay with WI38 (WI38 (Fibroblasten), 2,5 µg/ml); 50,00% in the assay with T47D [3] (T47D (Mamakarzinom), 5 µg/ml); 50,20% in the assay with T47D [3] (T47D (Mamakarzinom), 10 µg/ml); 39,10% with T47D [3] (T47D (Mamakarzinom), 2,5 µg/ml). Also, the “Zellwachstum in % der Mediumkontrolle” value was 81,80% in the assay on MIAPaCa2 (MIAPaCa2 (Pankreas), 5 µg/ml); 50,60% in the assay on MIAPaCa2 (MIAPaCa2 (Pankreas), 10 µg/ml); 84,10% in the assay on MIAPaCa2 (MIAPaCa2 (Pankreas), 2,5 µg/ml); 68% with Colo205 [5] (Colo205 (Colon), 5 µg/ml); 82,60% in the assay with Colo205 [5] (Colo205 (Colon), 10 µg/ml); 85,90% in the assay with Colo205 [5] (Colo205 (Colon), 2,5 µg/ml). The inhibition at 50 µg/mL with T47D [4] is 57%; with BT20, 15.7%; in the assay on Colo205 [6] it was 3.5%.
For the compound `COc1ccc(C=CC(=O)c2ccccc2O)cc1` [CH-1, 1-(2-Hydroxyphenyl)-3-(4-methoxyphenyl)propenon], in assay [2], the “Keimwachstum (grade)” value is “++”.
For the compound `O=C(/C=C/c1ccc(CO)o1)c1ccc(Cl)cc1` [HMF-2, 1-(4-Chlorophenyl)-3-(5-hydroxymethylfuran-2-yl)propenon], the IC50 in the assay on LNCaP came out at 3.25 µg/mL (≈ 12.4 µM); in the assay on EW-7, 0.3 µg/mL (≈ 1.14 µM); with WI38, 4.9 µg/mL (≈ 18.7 µM); in the assay on MIAPaCa2, 10 µg/mL (≈ 38.1 µM); in the assay on SKOV3 it was 36 µg/mL (≈ 137 µM); in the assay on LAN1 it was 4.25 µg/mL (≈ 16.2 µM). Moreover, the IC50 in the assay on J82 is 47 µg/mL (≈ 179 µM); in the assay on KAL it was 45 µg/mL (≈ 171 µM); in the assay on CRO2B, 50 µg/mL (≈ 190 µM); with U87MG, greater than 200 µg/mL; in the assay with CaCo-2, 17.5 µg/mL (≈ 66.6 µM); with SW620 it was 0.85 µg/mL (≈ 3.24 µM). Besides, the IC50 in the assay with SIM is greater than 200 µg/mL. The “Zellwachstum in % der Mediumkontrolle” value is 92,90% in the assay with WI38 (WI38 (Fibroblasten), 5 µg/ml); 10,60% in the assay with WI38 (WI38 (Fibroblasten), 10 µg/ml); 104,7% in the assay with WI38 (WI38 (Fibroblasten), 2,5 µg/ml); 25,60% in the assay with T47D [3] (T47D (Mamakarzinom), 5 µg/ml); 4,90% in the assay with T47D [3] (T47D (Mamakarzinom), 10 µg/ml); 28,10% in the assay on T47D [3] (T47D (Mamakarzinom), 2,5 µg/ml). In addition, the “Zellwachstum in % der Mediumkontrolle” value with MIAPaCa2 (MIAPaCa2 (Pankreas), 5 µg/ml) is reported as 91,10%; in the assay with MIAPaCa2 (MIAPaCa2 (Pankreas), 10 µg/ml), 74,60%; with MIAPaCa2 (MIAPaCa2 (Pankreas), 2,5 µg/ml), 84,30%; with Colo205 [5] (Colo205 (Colon), 5 µg/ml), 78,6%; with Colo205 [5] (Colo205 (Colon), 10 µg/ml) it was 41,30%; in the assay on Colo205 [5] (Colo205 (Colon), 2,5 µg/ml) it was 84,80%. For the same compound, the “Keimwachstum (grade)” value in assay [2] is given as “+++”. Also, the inhibition at 50 µg/mL with T47D [4] came out at 75.6%; with BT20, 74%; in the assay with Colo205 [6] it was 35.6%.

By IC50 is commonly meant the concentration needed to halve the response being measured. For orientation: inhibition means the percentage by which the read-out fell short of the control.

The values are drawn from patent EP1764363A2, “Substituted acetophenonederivatives” (Riemser Arzneimittel AG, priority 2005, dated 2007).
